The target in data set [1] is T1, GABA-A receptor; anion channel (Rattus norvegicus) (UniProt O09028+P15431+P18506+P18508+P19969+P20236+P23574+P23576+P28471+P28473+P30191+P62813+P63079+P63138+Q91ZM7+Q9ES14). The experiment in a line: Inhibition of [3H]GABA binding to Gamma-aminobutyric acid (GABA-A) receptor isolated from rat brain homogenates at 5*10e-4 M.
A short description of data set [2]: Half-life period was determined at 20 degree Celsius at UV lambdamax nm of 304(7800); unstable. The format is ADME.
Data set [3] has as its system GABA-A receptor; anion channel. Briefly: Inhibition of [3H]GABA binding to Gamma-aminobutyric acid (GABA-A) receptor of rat brain homogenates (unstable).
Data set [4] can be described thus: Half-life period was determined at 20 degree Celsius at UV lambdamax nm of 345 (23000); Stable. The format is ADME.
Data set [5] in a line: Half-life period was determined at 20 degree Celsius at UV lambdamax nm of 260 (9600), 350 (5000); Stable. The format is ADME.
Data set [6] is described as follows: Half-life period was determined at 20 degree Celsius at UV lambdamax nm of 390 (5900); Stable. The format is ADME.
The nature of data set [7]: Half-life period was determined at 20 degree Celsius at UV lambdamax nm of 348 (44000); Stable. The class given is ADME.
A short description of data set [8]: Half-life period was determined at 20 degree Celsius at UV lambdamax nm of 313 (23000); Stable. The format is ADME.
The target of data set [9] is Gamma-aminobutyric acid receptor subunit gamma-1 (Rattus norvegicus) (UniProt P23574). The experiment in a line: Inhibition of [3H]GABA binding to Gamma-aminobutyric acid (GABA-A) receptor of rat brain homogenates at 5*10e-4 M.
Data set [10] deals with GABA-A receptor; anion channel. Briefly: Inhibition of [3H]GABA binding to Gamma-aminobutyric acid (GABA-A) receptor of rat brain homogenates.
Data set [11] in a line: Half-life period was determined at 20 degree Celsius at UV lambdamax nm of 321 (6500). The format is ADME.
The nature of data set [12]: Half-life period was determined at 20 degree Celsius at UV lambdamax nm of 328 (12000). The class given is ADME.
Data set [13] in a line: Half-life period was determined at 20 degree Centigrade at UV lambdamax nm of 328 (9000). The format is ADME.
A short description of data set [14]: Half-life period was determined at 20 degree Centigrade at UV lambdamax nm of 299 (8000). The class given is ADME.
Data set [15] deals with Gamma-aminobutyric acid receptor subunit gamma-1 (Rattus norvegicus, UniProt P23574). Briefly: Inhibition of [3H]-GABA binding to Gamma-aminobutyric acid (GABA-A) receptor of rat brain homogenates (Unstable).
Data set [16] is described as follows: Half-life period was determined at 20 degree Celsius at UV lambdamax nm of 310 (16600). The class given is ADME.
Data set [17] is described as follows: Half-life period was determined at 20 degree Centigrade at UV lambdamax nm of 313 (12000). The class given is ADME.
A short description of data set [18]: Half-life period was determined at 20 degree Celsius at UV lambdamax nm of 255 (14000), 339 (7500). The format is ADME.
Data set [19] in a line: Half-life period was determined at 20 degree Celsius at UV lambdamax nm of 254 (15000), 341 (7800). The format is ADME.
A short description of data set [20]: Half-life period was determined at 20 degree Celsius at UV lambdamax nm of 268 (16000). The format is ADME.
The nature of data set [21]: Half-life period was determined at 20 degree Celsius at UV lambdamax nm of 266 (16000); Stable. The class given is ADME.
Data set [22] is described as follows: Half-life period was determined at 20 degree Celsius at UV lambdamax nm of 258 (8500). The format is ADME.
Data set [23] can be described thus: Half-life period was determined at 20 degree Celsius at UV lambdamax nm of 258 (9800); Stable. The class given is ADME.
Data set [24] can be described thus: Half-life period was determined at 20 degree Celsius at UV lambdamax nm of 316 (22000). The format is ADME.
Data set [25] in a line: Half-life period was determined at 20 degree Celsius at UV lambdamax nm of 323 (23000); Stable. The class given is ADME.
The nature of data set [26]: Half-life period was determined at 20 degree Celsius at UV lambdamax nm of 319 (22000). The format is ADME.
The nature of data set [27]: Half-life period was determined at 20 degree Celsius at UV lambdamax nm of 346 (44000); Stable. The class given is ADME.
The nature of data set [28]: Half-life period was determined at 20 degree Celsius at UV lambdamax nm of 306 (24000); Stable. The class given is ADME.
Data set [29] addresses T1, GABA-A receptor; anion channel (Rattus norvegicus). Briefly: Inhibition of [3H]-GABA binding to Gamma-aminobutyric acid (GABA-A) receptor of rat brain homogenates at 10e-5 M.
Data set [30] in a line: Half-life period was determined at 20 degree Centigrade at UV lambdamax nm of 328; Unstable. The format is ADME.
Data set [31] is described as follows: Half-life period was determined at 20 degree Celsius at UV lambdamax nm of 313 (22000). The format is ADME.
The nature of data set [32]: Half-life period was determined at 20 degree Centigrade at UV lambdamax nm of 306 (24000). The format is ADME.
Data set [33] is described as follows: Half-life period was determined at 20 degree Celsius at UV lambdamax nm of 314 (24000); stable. The format is ADME.
Data set [34] in a line: Half-life period was determined at 20 degree Celsius at UV lambdamax nm of 256 (16000), 349 (9000). The class given is ADME.
A short description of data set [35]: Half-life period was determined at 20 degree Celsius at UV lambdamax nm of 257 (14000), 350 (7900)stable. The format is ADME.

The text below walks through data of ChEMBL document CHEMBL1123561, “Aryl diazo compounds and diazonium salts as potential irreversible probes of the gamma-aminobutyric acid receptor” (J Med Chem, 1987).

Gamma-aminobutyric acid receptor subunit gamma-1 (Rattus norvegicus), sequence (P23574 whole entry): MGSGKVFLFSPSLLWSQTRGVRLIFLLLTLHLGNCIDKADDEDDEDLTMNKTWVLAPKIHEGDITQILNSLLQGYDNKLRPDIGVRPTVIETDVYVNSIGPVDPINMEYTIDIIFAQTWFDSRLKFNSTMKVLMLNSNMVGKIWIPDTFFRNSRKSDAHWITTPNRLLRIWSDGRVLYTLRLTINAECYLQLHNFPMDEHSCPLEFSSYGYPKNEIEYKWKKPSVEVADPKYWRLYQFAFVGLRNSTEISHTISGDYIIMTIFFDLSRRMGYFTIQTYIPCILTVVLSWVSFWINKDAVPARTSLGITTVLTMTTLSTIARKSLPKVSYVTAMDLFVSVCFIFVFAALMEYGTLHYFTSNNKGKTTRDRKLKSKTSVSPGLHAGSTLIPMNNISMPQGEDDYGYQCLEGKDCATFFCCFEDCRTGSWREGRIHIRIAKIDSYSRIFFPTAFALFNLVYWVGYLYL
Gamma-aminobutyric acid receptor subunit gamma-1, sequence (P23574 whole entry): as above

On to `NCc1ccc[n+]([O-])c1`, for which the inhibition (as a rule, the percentage by which the read-out fell short of the control) in [1] was determined as 20%.
Turning to `N#[N+]c1cc[n+]([O-])cc1`, the results for the T1/2 entry in data set [2] and in [4] were “Unstable” and “Stable”, respectively. Besides, the half-maximal inhibitory concentration (IC50) (commonly the point on the concentration scale where inhibition reaches its midpoint) in data set [3] is on record as “Unstable”.
In data set [1], `Nc1nc(CC(N)C(=O)O)c[nH]1` (stereo not given) showed an inhibition of less than 50%.
With `[N-]=[N+]=C1C=C(S(=O)(=O)O)C=CC1=O`, the T1/2 result in data set [5] and in [6] was “Stable” throughout. Further, the inhibition in data set [1] amounted to 15%.
Regarding `[N-]=[N+]=C1C=CC(=O)C=C1`, the T1/2 entry in data set [7] and in data set [8] was “Stable” throughout. In [1], this compound came in with an inhibition of 15%.
As to `Nc1ncc(CC(=O)O)s1`, the inhibition in [9] is less than 50%.
As for `N#[N+]c1cccc(S(=O)(=O)[O-])c1`, in data set [10], the IC50 stood at 5 µM.
Consider `N#[N+]c1nc(CC(=O)[O-])cs1`, for which the results for the half-life in data set [11], in [12] and in data set [13] were 43 h, 48 h and 0.417 h, respectively. For the same compound, the IC50 result in data set [3] is on record as “Unstable”.
For `N#[N+]c1nccn1CC(=O)[O-]`, the half-life – broadly, how long it takes for the measured level to halve – in [14] is 3 h; in [16], 12 h; in [17], 0.367 h. The IC50 result in [15] is “Unstable”.
In the case of `Nc1nccn1CC(=O)O`, the inhibition in data set [1] turned out to be 20%.
Regarding `N#[N+]c1cccc2cccc(S(=O)(=O)[O-])c12`, the half-life in data set [18] was 16 h; in [19], 22 h. This compound showed an IC50 in data set [10] of 10 µM.
For the compound `N#[N+]c1ccc(S(=O)(=O)[O-])cc1`, in data set [20], the half-life was 6 h. Further, the T1/2 entry in [21] is “Stable”. Moreover, the inhibition in data set [9] is less than 50%.
In [22], `N#[N+]c1cccc(C(=O)[O-])c1` displayed a half-life of 1.33 h. The T1/2 entry in [23] is “Stable”. The inhibition in data set [1] worked out at 30%.
For `N#[N+]c1nc(CC(=O)[O-])c[nH]1`, the half-life was 60 h in data set [24] and 11 h in [26]. The same compound gave an IC50 in [10] of 70 µM. Moreover, the T1/2 entry in data set [25] is reported as “Stable”.
With `[N-]=[N+]=C1C=CC(=O)C(S(=O)(=O)O)=C1`, the T1/2 entry in [27] and in [28] was “Stable” throughout. In [1], this compound displayed an inhibition of 15%.
In turn, `Nc1nc(CC(=O)O)cs1` came in with an inhibition in [29] of 25%.
Still for that read-out and setting: in the case of `Nc1nc(CC(=O)O)c[nH]1` it was 30%.
For the compound `N#[N+]c1ncc(CC(=O)[O-])s1`, the IC50 result in [3] is “Unstable”. Besides, the T1/2 result in data set [30] is reported as “Unstable”.
With `Nc1ncc[nH]1`, the inhibition in data set [1] is 0%.
Regarding `N#[N+]C1N=CC[N-]1` (stereo not given), the values for the half-life in data set [31] and in data set [32] were 8 h and 48 h, respectively. Also, the IC50 in [10] was 500 µM. Besides, the T1/2 entry in data set [33] is “Stable”.
As for `N#[N+]c1ccc2cccc(S(=O)(=O)[O-])c2c1`, the half-life in data set [34] is 0.75 h. Also, in data set [35], the T1/2 result is “Stable”. In [10], the concentration for half-maximal inhibition (IC50) is less than 10 µM.
